Measurements published in patent US20230250060A1 (IFM Due, Inc., priority 2022, published 2023).

Molecular target: T1, STING (Homo sapiens, UniProt Q86WV6, G230A/H232R/R293Q/R71H)
T1 construct: host or cells: THP1-Dual KO-IFNAR2 cells
Test: STING reporter assay (luciferase) in THP1-Dual KO-IFNAR2 cells stimulated with 2′3′cGAMP
Assay type: cell-based
Conditions: 2′3′cGAMP 15 μM final, 24 h, luciferase reporter activity, read-out: Pharmaron, THP1_IFNAR2 STING 24 h Luci Normalized: GeoMean EC50
Description: STING pathway activation by the compounds described herein was measured using TTIP1-Dual™ cells (KO-IFNAR2).
TTIP1-Dual™ KO-IFNAR2 Cells (obtained from invivogen) were maintained in RPMI, 10% FCS, 5 ml P/S, 2 mM L-glut, 10 mM Hepes, and 1 mM sodium pyruvate. Compounds were spotted in empty 384 well tissue culture plates (Greiner 781182) by Echo for a final concentration of 0.0017-100 μM. Cells were plated into the TC plates at 40 μL per well, 2×10E6 cells/mL. For activation with STING ligand, 2′3′cGAMP (MW 718.38, obtained from Invivogen), was prepared in Optimem media.
The following solutions were prepared for each 1×384 plate: • Solution A: 2 mL Optimem with one of the following stimuli: • […] • Solution B: 2 mL Optimem with […] Lipofectamine 2000→Incubate 5 min at RT
2 mL of solution A and 2 ml Solution B was mixed and incubated for 20 min at room temperature (RT). 20 μL of transfection solution (A+B) was added on top of the plated cells, with a final 2′3′cGAMP concentration of 15 μM. The plates were then centrifuged immediately at 340 g for 1 minute, after which they were incubated at 37° C., 5% CO2, >98% humidity for 24 h. Luciferase reporter activity was then measured. EC50 values were calculated by using standard methods known in the art.
Luciferase reporter assay: 10 μL of supernatant from the assay was transferred to white 384-plate with flat bottom and squared wells. One pouch of QUANTI-Luc™ Plus was dissolved in 25 mL of water. 100 μL of QLC Stabilizer per 25 mL of QUANTI-Luc™ Plus solution was added. 50 μL of QUANTI-Luc™ Plus/QLC solution per well was then added. Luminescence was measured on a Platereader (e.g., Spectramax I3X (Molecular Devices GF3637001)).
Luciferase reporter activity was then measured. EC50 values were calculated by using standard methods known in the art.

T1 sequence (Q86WV6 whole entry R71H/G230A/H232R/R293Q): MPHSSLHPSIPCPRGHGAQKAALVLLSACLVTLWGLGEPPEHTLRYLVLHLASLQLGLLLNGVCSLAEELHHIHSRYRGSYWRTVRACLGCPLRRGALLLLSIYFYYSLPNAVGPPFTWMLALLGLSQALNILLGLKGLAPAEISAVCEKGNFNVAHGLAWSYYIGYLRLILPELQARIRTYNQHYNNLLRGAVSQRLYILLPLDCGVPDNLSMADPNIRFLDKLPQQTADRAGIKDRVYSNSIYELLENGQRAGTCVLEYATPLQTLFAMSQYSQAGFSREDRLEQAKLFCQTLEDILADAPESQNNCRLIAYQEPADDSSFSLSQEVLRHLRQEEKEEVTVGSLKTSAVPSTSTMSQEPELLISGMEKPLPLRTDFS

| Structure (SMILES) | EC50 [nM] |
| --- | --- |
| O=C(Nc1c[nH]c2ccc(OCC[C@@H]3C[C@@H]4CN(CC(F)(F)F)C[C@@H]4C3)cc12)C1CC2(CC2)C1 [Compound 222, N-(5-{2-[(3aR,5R,6aS)-2-(2,2,2-trifluoroethyl)octahydrocyclopenta[c]pyrrol-5-yl]ethoxy}-1H-indol-3-yl)spiro[2.3]hexane-5-carboxamide] | 200 to 1000 |
| Cn1nccc1C(=O)Nc1c[nH]c2ccc(O[C@H]3C[C@@H](c4ccc(C(F)(F)F)cc4)C3)cc12 [Compound 168, 1-methyl-N-(5-((1s,3s)-3-(4-(trifluoromethyl)phenyl)cyclobutoxy)-1H-indol-3-yl)-1H-pyrazole-5-carboxamide] | 200 to 1000 |
| O=C(Nc1c[nH]c2ccc(O[C@H]3C[C@H](c4ccc(C(F)(F)F)cc4)C3)cc12)c1ncccc1F [Compound 231, 3-fluoro-N-{5-[(1R,3R)-3-[4-(trifluoromethyl)phenyl]cyclobutoxy]-1H-indol-3-yl}pyridine-2-carboxamide] | 40 to 200 |
| Cn1ccnc1C(=O)Nc1c[nH]c2ccc(O[C@H]3C[C@H](c4ccc(C(F)(F)F)cc4)C3)cc12 [Compound 220, 1-methyl-N-{5-[(1R,3R)-3-[4-(trifluoromethyl)phenyl]cyclobutoxy]-1H-indol-3-yl}-1H-imidazole-2-carboxamide] | 200 to 1000 |
| Cn1nccc1C(=O)Nc1c[nH]c2ccc(O[C@H]3C[C@H](c4ccc(C(F)(F)F)cc4)C3)cc12 [Compound 237, 1-methyl-N-{5-[(1R,3R)-3-[4-(trifluoromethyl)phenyl]cyclobutoxy]-1H-indol-3-yl}-1H-pyrazole-5-carboxamide] | 200 to 1000 |
| O=C(Nc1c[nH]c2ccc(OCC[C@@H]3C[C@@H]4CN(CC(F)(F)F)C[C@@H]4C3)cc12)c1ncccc1F [Compound 187, 3-fluoro-N-(5-(2-((3aR,5r,6aS)-2-(2,2,2-trifluoroethyl)octahydrocyclopenta[c]pyrrol-5-yl)ethoxy)-1H-indol-3-yl)picolinamide] | 1000 to 5000 |
| O=C(Nc1c[nH]c2ccc(OCCc3ccc(C(F)(F)F)cc3)cc12)c1cn(-c2cnc(N3CCC(F)(F)CC3)c(F)c2)nn1 [Compound 245, 1-(6-(4,4-difluoropiperidin-1-yl)-5-fluoropyridin-3-yl)-N-(5-(4-(trifluoromethyl)phenethoxy)-1H-indol-3-yl)-1H-1,2,3-triazole-4-carboxamide] | 200 to 1000 |

Other lines, results leading:

| EC50 [nM] | Structure (SMILES) |
| --- | --- |
| 40 to 200 | O=C(Nc1c[nH]c2ccc(OCCc3ccc(C(F)(F)F)cc3)cc12)C1CC12CC2 (stereo not shown) [Compound 126, N-(5-(4-(trifluoromethyl)phenethoxy)-1H-indol-3-yl)spiro[2.2]pentane-1-carboxamide] |
| 40 to 200 | O=C(Nc1c[nH]c2ccc(OCc3ccc(C(F)(F)F)cc3)cc12)C1CC12CCC2 (stereo not shown) [Compound 236, N-(5-{[4-(trifluoromethyl)phenyl]methoxy}-1H-indol-3-yl)spiro[2.3]hexane-1-carboxamide] |
| 200 to 1000 | Cn1nccc1C(=O)Nc1c[nH]c2ccc(OCCc3ccc(C(F)(F)F)cc3)cc12 [Compound 203, 1-methyl-N-(5-(4-(trifluoromethyl)phenethoxy)-1H-indol-3-yl)-1H-pyrazole-5-carboxamide] |
| 200 to 1000 | O=C(Nc1c[nH]c2ccc(CCOc3ccc(C(F)(F)F)cc3)cc12)C12CC(F)(C1)C2 [Compound 116, 3-fluoro-N-(5-(2-(4-(trifluoromethyl)phenoxy)ethyl)-1H-indol-3-yl)bicyclo[1.1.1]pentane-1-carboxamide] |
| 1000 to 5000 | O=C(Nc1c[nH]c2ccc(OCC[C@@H]3C[C@@H]4CN(CC(F)(F)F)C[C@@H]4C3)cc12)C1CC12CC2 (stereo partly drawn) [Compound 158, N-(5-(2-((3aR,5r,6aS)-2-(2,2,2-trifluoroethyl)octahydrocyclopenta[c]pyrrol-5-yl)ethoxy)-1H-indol-3-yl)spiro[2.2]pentane-1-carboxamide] |
| 200 to 1000 | O=C(Nc1c[nH]c2ccc(OCc3ccc(C(F)(F)F)cc3)cc12)C12CC(C1)C2 [Compound 164, N-(5-((4-(trifluoromethyl)benzyl)oxy)-1H-indol-3-yl)bicyclo[1.1.1]pentane-1-carboxamide] |
